Reference: patent publication US20230339937A1, “CONDENSED RING COMPOUNDS THAT INHIBIT H-PGDS” (SATO PHARMACEUTICAL CO., LTD., priority 2020, published 2023)

Target: T1, Recombinant human H-PGDS (Homo sapiens, UniProt O60760)
T1 construct: made in house; host or cells: E. coli
Experiment: H-PGDS inhibitory activity (prostaglandin D2 production from prostaglandin H2, measured by LC-MS/MS)
Format: biochemical
Conditions: recombinant human H-PGDS 1.0 nM expressed in E. coli; prostaglandin H2 25 μM; preincubated 15 minutes on ice, reacted on ice for 1 minute; concentration that inhibits prostaglandin D2 production by 50%
Outline: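 PGD2 formed from 25 µM prostaglandin H2 during a 1-min on-ice reaction was measured by LC-MS/MS after an FeCl2/citric acid stop. The enzyme was 1.0 nM E. coli-expressed human H-PGDS in Tris-HCl pH 8.0 buffer with MgCl2, reduced glutathione and γ-globulin, preincubated with compound for 15 min on ice. Production was normalised to DMSO controls minus the no-enzyme background.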

T1 sequence (O60760 whole entry): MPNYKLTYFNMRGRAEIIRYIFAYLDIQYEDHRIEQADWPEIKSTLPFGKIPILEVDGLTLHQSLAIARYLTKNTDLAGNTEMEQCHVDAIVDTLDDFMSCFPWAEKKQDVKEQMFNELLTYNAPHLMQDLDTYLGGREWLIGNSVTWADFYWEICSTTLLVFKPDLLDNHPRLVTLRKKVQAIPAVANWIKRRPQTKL

| Compound | IC50 [nM] |
| --- | --- |
| O=C(N[C@@H]1COCCN(c2ncccn2)C1)c1ccc(-c2nccc3occc23)cc1 [Example 224, (S)-4-(furo[3,2-c]pyridin-4-yl)-N-[4-(pyrimidin-2-yl)-1,4-oxazepan-6-yl]benzamide] | 1.8 |
| O=C(N[C@H]1COCCN(c2ncccn2)C1)c1ccc(-c2nccc3occc23)cc1 [Example 225, (R)-4-(furo[3,2-c]pyridin-4-yl)-N-[4-(pyrimidin-2-yl)-1,4-oxazepan-6-yl]benzamide] | 6.5 |
| O=C(N[C@H]1CCN(c2cccc(F)n2)C1)c1ccc(-c2nccc3occc23)cc1 [Example 226, (S)—N-[1-(6-fluoropyridin-2-yl)pyrrolidin-3-yl]-4-(furo[3,2-c]pyridin-4-yl)benzamide] | 2.8 |
| O=C(N[C@H]1CCN(c2cc(Cl)ncn2)C1)c1ccc(-c2nccc3occc23)cc1 [Example 227, (S)—N-[1-(6-chloropyrimidin-4-yl)pyrrolidin-3-yl]-4-(furo[3,2-c]pyridin-4-yl)benzamide] | 1.4 |
| O=C(N[C@H]1CCN(c2ccc(Cl)nn2)C1)c1ccc(-c2nccc3occc23)cc1 [Example 228, (S)—N-[1-(6-chloropyridazin-3-yl)pyrrolidin-3-yl]-4-(furo[3,2-c]pyridin-4-yl)benzamide] | 1.9 |
| O=C(N[C@H]1CCN(c2ccncn2)C1)c1ccc(-c2nccc3occc23)cc1 [Example 229, (S)-4-(furo[3,2-c]pyridin-4-yl)-N-[1-(pyrimidin-4-yl)pyrrolidin-3-yl]benzamide] | 1.5 |
| O=C(N[C@H]1CCN(c2cccnn2)C1)c1ccc(-c2nccc3occc23)cc1 [Example 230, (S)-4-(furo[3,2-c]pyridin-4-yl)-N-[1-(pyridazin-3-yl)pyrrolidin-3-yl]benzamide] | 1.2 |
| Cn1nnnc1N1CC[C@H](NC(=O)c2ccc(-c3nccc4occc34)cc2)C1 [Example 231, (S)-4-(furo[3,2-c]pyridin-4-yl)-N-[1-(1-methyl-1H-tetrazol-5-yl)pyrrolidin-3-yl]benzamide] | 3.2 |
| CCn1nnnc1N1CC[C@H](NC(=O)c2ccc(-c3nccc4occc34)cc2)C1 [Example 232, (S)-4-(furo[3,2-c]pyridin-4-yl)-N-[1-(1-ethyl-1H-tetrazol-5-yl)pyrrolidin-3-yl]benzamide] | 2 |
| O=C(N[C@H]1CCN(c2cccc(=O)[nH]2)C1)c1ccc(-c2nccc3occc23)cc1 [Example 233, (S)-4-(furo[3,2-c]pyridin-4-yl)-N-[1-(6-oxo-1,6-dihydropyridin-2-yl)pyrrolidin-3-yl]benzamide] | 7.5 |
| CCC(=O)N1CCC(NC(=O)c2ccc(-c3nccc4occc34)cc2)CC1 [Example 234, 4-(furo[3,2-c]pyridin-4-yl)-N-(1-propionylpiperidin-4-yl)benzamide] | 1.6 |
| O=C(NC1CCN(C(=O)C2CC2)CC1)c1ccc(-c2nccc3occc23)cc1 [Example 235, N-[1-(cyclopropanecarbonyl)piperidin-4-yl]-4-(furo[3,2-c]pyridin-4-yl)benzamide] | 1.2 |
| O=C(NC1CCN(C2COC2)CC1)c1ccc(-c2nccc3occc23)cc1 [Example 236, 4-(furo[3,2-c]pyridin-4-yl)-N-[1-(oxetan-3-yl)piperidin-4-yl]benzamide] | 1.1 |
| O=C(NC1CCN(c2nncs2)CC1)c1ccc(-c2nccc3occc23)cc1 [Example 237, N-[1-(1,3,4-thiadiazol-2-yl)piperidin-4-yl]-4-(furo[3,2-c]pyridin-4-yl)benzamide] | 1.2 |
| O=C(NC1CCN(c2cccc3nccn23)CC1)c1ccc(-c2nccc3occc23)cc1 [Example 238, 4-(furo[3,2-c]pyridin-4-yl)-N-[1-(imidazo[1,2-a]pyridin-5-yl)piperidin-4-yl]benzamide] | 3.6 |
| CCn1nnnc1N1CCC(NC(=O)c2ccc(-c3nccc4occc34)cc2)CC1 [Example 239, N-[1-(1-ethyl-1H-tetrazol-5-yl)piperidin-4-yl]-4-(furo[3,2-c]pyridin-4-yl)benzamide] | 1.2 |
| CCCn1nnnc1N1CCC(NC(=O)c2ccc(-c3nccc4occc34)cc2)CC1 [Example 240, 4-(furo[3,2-c]pyridin-4-yl)-N-[1-(1-propyl-1H-tetrazol-5-yl)piperidin-4-yl]benzamide] | 1.6 |
| CCCCn1nnnc1N1CCC(NC(=O)c2ccc(-c3nccc4occc34)cc2)CC1 [Example 241, N-[1-(1-butyl-1H-tetrazol-5-yl)piperidin-4-yl]-4-(furo[3,2-c]pyridin-4-yl)benzamide] | 2.7 |
| CC(C)n1nnnc1N1CCC(NC(=O)c2ccc(-c3nccc4occc34)cc2)CC1 [Example 242, 4-(furo[3,2-c]pyridin-4-yl)-N-[1-(1-isopropyl-1H-tetrazol-5-yl)piperidin-4-yl]benzamide] | 2 |
| O=C(NC1CCN(c2nnnn2C2CC2)CC1)c1ccc(-c2nccc3occc23)cc1 [Example 243, N-[1-(1-cyclopropyl-1H-tetrazol-5-yl)piperidin-4-yl]-4-(furo[3,2-c]pyridin-4-yl)benzamide] | 2 |
| COc1ccc(CN2CCC(NC(=O)c3ccc(-c4nccc5occc45)cc3)CC2)cc1Cl [Example 244, N-[1-(3-chloro-4-methoxybenzyl)piperidin-4-yl]-4-(furo[3,2-c]pyridin-4-yl)benzamide] | 4 |
| CC(C)(O)C(=O)N1CCC(NC(=O)c2ccc(-c3nccc4occc34)cc2)CC1 [Example 245, 4-(furo[3,2-c]pyridin-4-yl)-N-[1-(2-hydroxy-2-methylpropanoyl)piperidin-4-yl]benzamide] | 1.4 |
| O=C(NC1CCN(C(=O)CC(F)(F)F)CC1)c1ccc(-c2nccc3occc23)cc1 [Example 246, 4-(furo[3,2-c]pyridin-4-yl)-N-[1-(3,3,3-trifluoropropanoyl)piperidin-4-yl]benzamide] | 1.8 |
| N#CN1CCC(NC(=O)c2ccc(-c3nccc4occc34)cc2)CC1 [Example 247, N-(1-cyanopiperidin-4-yl)-4-(furo[3,2-c]pyridin-4-yl)benzamide] | 2.3 |
| O=C(NC1CCN(c2nn[nH]n2)CC1)c1ccc(-c2nccc3occc23)cc1 [Example 248, N-[1-(1H-tetrazol-5-yl)piperidin-4-yl]-4-(furo[3,2-c]pyridin-4-yl)benzamide] | 4.4 |
| Cn1nnc(N2CCC(NC(=O)c3ccc(-c4nccc5occc45)cc3)CC2)n1 [Example 249, 4-(furo[3,2-c]pyridin-4-yl)-N-[1-(2-methyl-2 H-tetrazol-5-yl)piperidin-4-yl]benzamide] | 1.6 |
| Cn1nccc1N1CCC(NC(=O)c2ccc(-c3nccc4occc34)cc2)CC1 [Example 250, 4-(furo[3,2-c]pyridin-4-yl)-N-[1-(1-methyl-1H-pyrazol-5-yl)piperidin-4-yl]benzamide] | 3.2 |
| Cn1ccnc1N1CCC(NC(=O)c2ccc(-c3nccc4occc34)cc2)CC1 [Example 251, 4-(furo[3,2-c]pyridin-4-yl)-N-[1-(1-methyl-1H-imidazol-2-yl)piperidin-4-yl]benzamide] | 2 |
| Cn1cc(N2CCC(NC(=O)c3ccc(-c4nccc5occc45)cc3)CC2)cn1 [Example 252, 4-(furo[3,2-c]pyridin-4-yl)-N-[1-(1-methyl-1H-pyrazol-4-yl)piperidin-4-yl]benzamide] | 1.2 |
